The supplement of paper PMC10733146

Legend:
Assay in all cases: viability relative to DMSO control (fraction); higher = less drug effect (more viable cells)
Settings in all cases: 48 h
SGC 0946 = compound: CC(C)N(CCCNC(=O)Nc1ccc(C(C)(C)C)cc1)C[C@H]1O[C@@H](n2cc(Br)c3c(N)ncnc32)[C@H](O)[C@@H]1O [SGC 0946]
Outline: (§1)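 Using 384-well plates with compounds already plated at five concentrations, one well per concentration, 4 × 10^4 primary mononuclear tumour cells were added per well. Cells were Ficoll-isolated from blood or bone marrow or came from processed lymph node, fresh or cryopreserved. They were kept for 48 h at 37 °C and 5% CO2 in RPMI-1640 supplemented with penicillin/streptomycin, L-glutamine and human serum, and viability was read as CellTiter-Glo luminescence relative to the median of 16 inner DMSO wells.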

Roscovitine = compound: CC[C@H](CO)Nc1nc(NCc2ccccc2)c2ncn(C(C)C)c2n1 [Roscovitine]
Outline: as §1

Vindesine = compound: CC[C@]1(O)C[C@@H]2CN(CCc3c([nH]c4ccccc34)[C@@](C(=O)OC)(c3cc4c(cc3OC)N(C)[C@H]3[C@@](O)(C(N)=O)[C@H](O)[C@]5(CC)C=CCN6CC[C@]43[C@@H]65)C2)C1 [Vindesine]
Outline: as §1

Midostaurin hydrate = compound: CO[C@@H]1[C@H](N(C)C(=O)c2ccccc2)C[C@H]2O[C@]1(C)n1c3ccccc3c3c4c(c5c6ccccc6n2c5c31)C(=O)NC4 [Midostaurin hydrate]
Outline: as §1

Everolimus = compound: CO[C@H]1C[C@@H]2CC[C@@H](C)[C@@](O)(O2)C(=O)C(=O)N2CCCC[C@H]2C(=O)O[C@H]([C@H](C)C[C@@H]2CC[C@@H](OCCO)[C@H](OC)C2)CC(=O)[C@H](C)/C=C(\C)[C@@H](O)[C@@H](OC)C(=O)[C@H](C)C[C@H](C)/C=C/C=C/C=C/1C [Everolimus]
Outline: as §1

Idasanutlin (RS7388) = compound: COc1cc(C(=O)O)ccc1NC(=O)[C@@H]1N[C@@H](CC(C)(C)C)[C@](C#N)(c2ccc(Cl)cc2F)[C@H]1c1cccc(Cl)c1F [Idasanutlin (RS7388)]
Outline: as §1

Etoposide = compound: COc1cc([C@@H]2c3cc4c(cc3[C@@H](O[C@@H]3O[C@@H]5CO[C@@H](C)O[C@H]5[C@H](O)[C@H]3O)[C@H]3COC(=O)[C@H]23)OCO4)cc(OC)c1O [Etoposide]
Outline: as §1

Tofacitinib = compound: C[C@@H]1CCN(C(=O)CC#N)C[C@@H]1N(C)c1ncnc2[nH]ccc12 [Tofacitinib]
Outline: as §1

Duvelisib = compound: C[C@H](Nc1ncnc2nc[nH]c12)c1cc2cccc(Cl)c2c(=O)n1-c1ccccc1 [Duvelisib]
Outline: as §1

Bendamustine = compound: Cn1c(CCCC(=O)O)nc2cc(N(CCCl)CCCl)ccc21 [Bendamustine]
Outline: as §1

Pomalidomide = compound: Nc1cccc2c1C(=O)N(C1CCC(=O)NC1=O)C2=O [Pomalidomide]
Outline: as §1

[1] = compound: O=C(Nc1ccc2[nH]nc(-c3ccncc3)c2c1)[C@@H]1CCN(CC(=O)N2CCN(c3ccc(-c4ncccn4)cc3)CC2)C1
Outline: as §1

Chlorambucil = compound: O=C(O)CCCc1ccc(N(CCCl)CCCl)cc1 [Chlorambucil]
Outline: as §1

Entospletinib = compound: c1cn2cc(-c3ccc4cn[nH]c4c3)nc(Nc3ccc(N4CCOCC4)cc3)c2n1 [Entospletinib]
Outline: as §1

primary BL patient cells (S005) was tested, and the viability (SGC 0946; 0.024 µM) was 1.08, the viability (SGC 0946; 0.12 µM) was 1.09 and the viability (SGC 0946; 0.6 µM) was 0.927. For the same test system, the viability (SGC 0946; 3 µM) was 1.01, the viability (SGC 0946; 15 µM) was 0.712 and the viability (Roscovitine; 0.032 µM) was 1.01. For the same test system, the viability (Roscovitine; 0.16 µM) was 1.56, the viability (Roscovitine; 0.8 µM) was 1.01 and the viability (Roscovitine; 4 µM) was 1.6. The viability (Roscovitine; 20 µM) was 1.37, the viability (Vindesine; 0.016 µM) was 0.812 and the viability (Vindesine; 0.08 µM) was 0.859. The viability (Vindesine; 0.4 µM) was 0.903, the viability (Vindesine; 2 µM) was 0.775 and the viability (Vindesine; 10 µM) was 0.892. For the same test system, the viability (Midostaurin hydrate; 0.024 µM) was 0.905, the viability (Midostaurin hydrate; 0.12 µM) was 0.92 and the viability (Midostaurin hydrate; 0.6 µM) was 1.02. For the same test system, the viability (Midostaurin hydrate; 3 µM) was 0.896, the viability (Midostaurin hydrate; 15 µM) was 0.77 and the viability (Everolimus; 0.0032 µM) was 0.819. It also gave a viability (Everolimus; 0.016 µM) of 0.837, a viability (Everolimus; 0.08 µM) of 0.787 and a viability (Everolimus; 0.4 µM) of 0.848. The viability (Everolimus; 2 µM) was 0.8, the viability (Idasanutlin (RS7388); 0.032 µM) was 1.28 and the viability (Idasanutlin (RS7388); 0.16 µM) was 1.01. The viability (Idasanutlin (RS7388); 0.8 µM) was 1.09, the viability (Idasanutlin (RS7388); 4 µM) was 1.31 and the viability (Idasanutlin (RS7388); 20 µM) was 1. The viability (Etoposide; 0.032 µM) was 1, the viability (Etoposide; 0.16 µM) was 1.22 and the viability (Etoposide; 0.8 µM) was 1.3. The viability (Etoposide; 4 µM) was 1.05, the viability (Etoposide; 20 µM) was 1.12 and the viability (Tofacitinib; 0.024 µM) was 0.965. The viability (Tofacitinib; 0.12 µM) was 0.944, the viability (Tofacitinib; 0.6 µM) was 0.917 and the viability (Tofacitinib; 3 µM) was 0.939. For the same test system, the viability (Tofacitinib; 15 µM) was 0.823, the viability (Duvelisib; 0.0016 µM) was 1.01 and the viability (Duvelisib; 0.008 µM) was 1.03. The viability (Duvelisib; 0.04 µM) was 0.93, the viability (Duvelisib; 0.2 µM) was 0.981 and the viability (Duvelisib; 1 µM) was 0.831. It also gave a viability (Bendamustine; 0.032 µM) of 1.01, a viability (Bendamustine; 0.16 µM) of 1.06 and a viability (Bendamustine; 0.8 µM) of 1.02. The viability (Bendamustine; 4 µM) was 1.01, the viability (Bendamustine; 20 µM) was 1.07 and the viability (Pomalidomide; 0.0032 µM) was 0.921. It also gave a viability (Pomalidomide; 0.016 µM) of 1.07, a viability (Pomalidomide; 0.08 µM) of 1.11 and a viability (Pomalidomide; 0.4 µM) of 0.957. The viability (Pomalidomide; 2 µM) was 1.04, the viability ([1]; 0.008 µM) was 1.02 and the viability ([1]; 0.04 µM) was 1.08. The viability ([1]; 0.2 µM) was 1.02, the viability ([1]; 1 µM) was 0.993 and the viability ([1]; 5 µM) was 0.935. For the same test system, the viability (Chlorambucil; 0.032 µM) was 0.967, the viability (Chlorambucil; 0.16 µM) was 0.887 and the viability (Chlorambucil; 0.8 µM) was 0.974. The viability (Chlorambucil; 4 µM) was 1.02, the viability (Chlorambucil; 20 µM) was 0.918 and the viability (Entospletinib; 0.024 µM) was 1.01. It also gave a viability (Entospletinib; 0.12 µM) of 0.996, a viability (Entospletinib; 0.6 µM) of 1.06 and a viability (Entospletinib; 3 µM) of 1.08. The viability (Entospletinib; 15 µM) was 0.986.

primary AML patient cells (S019) showed a viability (SGC 0946; 0.024 µM) of 1.04, a viability (SGC 0946; 0.12 µM) of 1.04 and a viability (SGC 0946; 0.6 µM) of 0.918. The viability (SGC 0946; 3 µM) was 1.01, the viability (SGC 0946; 15 µM) was 0.652 and the viability (Roscovitine; 0.032 µM) was 1.08. It also gave a viability (Roscovitine; 0.16 µM) of 1.07, a viability (Roscovitine; 0.8 µM) of 1.16 and a viability (Roscovitine; 4 µM) of 0.986. For the same test system, the viability (Roscovitine; 20 µM) was 0.864, the viability (Vindesine; 0.016 µM) was 1.1 and the viability (Vindesine; 0.08 µM) was 0.956. The viability (Vindesine; 0.4 µM) was 1.02, the viability (Vindesine; 2 µM) was 0.803 and the viability (Vindesine; 10 µM) was 0.717. The viability (Midostaurin hydrate; 0.024 µM) was 1.11, the viability (Midostaurin hydrate; 0.12 µM) was 0.956 and the viability (Midostaurin hydrate; 0.6 µM) was 1.19. It also gave a viability (Midostaurin hydrate; 3 µM) of 1.27, a viability (Midostaurin hydrate; 15 µM) of 1.09 and a viability (Everolimus; 0.0032 µM) of 0.907. For the same test system, the viability (Everolimus; 0.016 µM) was 0.982, the viability (Everolimus; 0.08 µM) was 0.893 and the viability (Everolimus; 0.4 µM) was 0.969. For the same test system, the viability (Everolimus; 2 µM) was 0.973, the viability (Idasanutlin (RS7388); 0.032 µM) was 0.481 and the viability (Idasanutlin (RS7388); 0.16 µM) was 0.976. It also gave a viability (Idasanutlin (RS7388); 0.8 µM) of 0.457, a viability (Idasanutlin (RS7388); 4 µM) of 0.18 and a viability (Idasanutlin (RS7388); 20 µM) of 0.323. For the same test system, the viability (Etoposide; 0.032 µM) was 1.23, the viability (Etoposide; 0.16 µM) was 0.9 and the viability (Etoposide; 0.8 µM) was 0.742. For the same test system, the viability (Etoposide; 4 µM) was 0.876, the viability (Etoposide; 20 µM) was 0.298 and the viability (Tofacitinib; 0.024 µM) was 1.1. The viability (Tofacitinib; 0.12 µM) was 1.09, the viability (Tofacitinib; 0.6 µM) was 1.16 and the viability (Tofacitinib; 3 µM) was 1.13. It also gave a viability (Tofacitinib; 15 µM) of 1, a viability (Duvelisib; 0.0016 µM) of 1.04 and a viability (Duvelisib; 0.008 µM) of 1.1. The viability (Duvelisib; 0.04 µM) was 1.1, the viability (Duvelisib; 0.2 µM) was 1.19 and the viability (Duvelisib; 1 µM) was 0.993. It also gave a viability (Bendamustine; 0.032 µM) of 1.01, a viability (Bendamustine; 0.16 µM) of 1.12 and a viability (Bendamustine; 0.8 µM) of 1.01. For the same test system, the viability (Bendamustine; 4 µM) was 0.991, the viability (Bendamustine; 20 µM) was 0.937 and the viability (Pomalidomide; 0.0032 µM) was 1.03. It also gave a viability (Pomalidomide; 0.016 µM) of 1.21, a viability (Pomalidomide; 0.08 µM) of 1.08 and a viability (Pomalidomide; 0.4 µM) of 0.963. It also gave a viability (Pomalidomide; 2 µM) of 1.08, a viability ([1]; 0.008 µM) of 0.96 and a viability ([1]; 0.04 µM) of 0.96. It also gave a viability ([1]; 0.2 µM) of 0.92, a viability ([1]; 1 µM) of 0.863 and a viability ([1]; 5 µM) of 0.815. It also gave a viability (Chlorambucil; 0.032 µM) of 0.909, a viability (Chlorambucil; 0.16 µM) of 0.911 and a viability (Chlorambucil; 0.8 µM) of 0.938. For the same test system, the viability (Chlorambucil; 4 µM) was 0.9, the viability (Chlorambucil; 20 µM) was 0.427 and the viability (Entospletinib; 0.024 µM) was 0.991. The viability (Entospletinib; 0.12 µM) was 1.05, the viability (Entospletinib; 0.6 µM) was 0.996 and the viability (Entospletinib; 3 µM) was 1.02. It also gave a viability (Entospletinib; 15 µM) of 1.01.
